Laboratory results reported in patent US9345793B2, “Compounds for binding to the platelet specific glycoprotein IIB/IIIA and their use for imaging of thrombi” (PIRAMAL IMAGING SA, priority 2011, dated 2016).
Where two headings read alike, the source gives them in different places.

How the values were obtained:
[1] = tested on: rat microsomes; test: In vitro metabolic stability in liver microsomes, rat; format: in vitro ADME; conditions: Wistar, male, calculated
Description: (§1) The incubation concentration was 0.3 μM. […] The samples were frozen over night at −20° C.

[2] = Plasma protein binding by equilibrium dialysis, monkey plasma; format: in vitro ADME; conditions: plasma (10% in buffer), Cynomolgus, read-out: Fu (Mari)
Description: (§2) The determination of the plasma protein binding of compounds was performed by means of an equilibrium dialysis in a 96-well HT plate. Solutions of test compound (0.3 μM and 3 μM) were prepared in buffer (50 mM phosphate buffer) and 10% plasma. A 96 well HT dialysis plate (Teflon) was assembled so that each well was divided in two compartments by a semi-permeable cellulose membrane (regenerated Cellulose, MWCO 12-14K). The phosphate buffer solution (150 μL) was added to one side of the membrane and the plasma solution to the other side (150 μL). The compounds were added to the plasma solution side and were incubated at 37 degree. The unbound fraction of the compound could pass through the membrane and equilibrium between the two sides could be reached (6-8 h, 37° C.). Both solutions were analyzed for each compound (plasma-free and plasma-containing) by LC-MS. Both solutions for each compound were diluted with buffer or plasma to reach the same matrix (10% plasma) for analysis and were precipitated by the addition of methanol. The fraction unbound (Fu) was calculated as the quotient of the equilibrium concentrations of the compound in plasma-free and plasma-containing solution.

[3] = biological target: human GPIIb/IIIa receptor (Homo sapiens (Human), UniProt P05106+P08514); test: Affinity assay: displacement of tritiated reference compound from immobilized purified GPIIb/IIIa; format: binding
Chain of human GPIIb/IIIa receptor (P08514 32-887): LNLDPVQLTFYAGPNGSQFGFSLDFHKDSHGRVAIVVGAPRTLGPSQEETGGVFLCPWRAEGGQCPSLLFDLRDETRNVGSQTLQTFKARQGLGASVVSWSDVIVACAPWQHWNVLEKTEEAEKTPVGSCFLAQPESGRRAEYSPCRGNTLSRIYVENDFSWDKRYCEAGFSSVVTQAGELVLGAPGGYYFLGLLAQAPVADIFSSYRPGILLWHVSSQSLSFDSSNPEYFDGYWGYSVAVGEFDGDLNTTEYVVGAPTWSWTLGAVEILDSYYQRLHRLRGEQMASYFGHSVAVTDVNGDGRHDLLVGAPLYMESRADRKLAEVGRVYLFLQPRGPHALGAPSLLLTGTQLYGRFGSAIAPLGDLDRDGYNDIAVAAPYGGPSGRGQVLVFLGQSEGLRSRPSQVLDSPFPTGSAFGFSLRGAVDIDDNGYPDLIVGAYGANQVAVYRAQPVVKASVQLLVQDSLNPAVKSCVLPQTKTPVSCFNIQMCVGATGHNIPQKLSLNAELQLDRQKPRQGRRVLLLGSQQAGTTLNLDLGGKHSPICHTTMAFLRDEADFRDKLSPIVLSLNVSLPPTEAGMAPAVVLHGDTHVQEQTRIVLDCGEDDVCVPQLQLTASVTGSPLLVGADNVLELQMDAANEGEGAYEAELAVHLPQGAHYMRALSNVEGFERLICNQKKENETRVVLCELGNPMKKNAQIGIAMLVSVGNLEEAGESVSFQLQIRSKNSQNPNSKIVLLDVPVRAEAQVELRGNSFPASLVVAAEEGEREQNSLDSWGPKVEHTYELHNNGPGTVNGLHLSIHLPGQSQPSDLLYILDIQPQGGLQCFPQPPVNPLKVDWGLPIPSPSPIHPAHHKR
Chain of human GPIIb/IIIa receptor (P08514 891-1039 partner): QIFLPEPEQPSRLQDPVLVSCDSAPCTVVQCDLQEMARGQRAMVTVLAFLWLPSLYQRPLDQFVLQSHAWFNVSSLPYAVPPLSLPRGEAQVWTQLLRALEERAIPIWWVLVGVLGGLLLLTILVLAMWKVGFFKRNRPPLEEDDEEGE
Chain of human GPIIb/IIIa receptor (P05106 27-788): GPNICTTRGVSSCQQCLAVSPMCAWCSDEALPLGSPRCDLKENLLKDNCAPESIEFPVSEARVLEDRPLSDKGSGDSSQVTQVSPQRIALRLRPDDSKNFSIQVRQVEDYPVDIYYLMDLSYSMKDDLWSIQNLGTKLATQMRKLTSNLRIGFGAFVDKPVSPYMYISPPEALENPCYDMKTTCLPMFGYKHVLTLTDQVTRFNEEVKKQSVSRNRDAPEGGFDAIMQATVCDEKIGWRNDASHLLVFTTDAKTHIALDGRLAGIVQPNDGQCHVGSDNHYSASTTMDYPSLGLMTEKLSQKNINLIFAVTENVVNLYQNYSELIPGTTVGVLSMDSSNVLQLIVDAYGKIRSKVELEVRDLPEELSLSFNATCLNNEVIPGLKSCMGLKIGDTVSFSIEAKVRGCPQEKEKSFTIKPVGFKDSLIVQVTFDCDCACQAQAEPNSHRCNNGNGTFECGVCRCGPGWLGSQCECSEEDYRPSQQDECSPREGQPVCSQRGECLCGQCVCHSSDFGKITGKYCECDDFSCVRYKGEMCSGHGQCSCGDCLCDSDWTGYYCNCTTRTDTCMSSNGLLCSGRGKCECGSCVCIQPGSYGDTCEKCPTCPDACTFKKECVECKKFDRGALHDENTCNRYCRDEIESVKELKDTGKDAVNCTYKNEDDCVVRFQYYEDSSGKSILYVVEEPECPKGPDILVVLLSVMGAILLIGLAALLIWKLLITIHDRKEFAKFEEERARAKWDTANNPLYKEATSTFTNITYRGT
Description: Affinity assay: In the first step human GPIIb/IIIa purified from human platelets was immobilized on a 96-well solid plate. After 48 hours the plates were washed and the unspecific binding sites were blocked with Roti®-Block. 2. In the next step, the plates were simultaneously incubated with a tritium labeled known GPIIb/IIIa binder (^3H) mixed with increasing concentrations of the novel small molecule compounds (inhibitor, ^19F). The higher the affinity of the inhibitor, the lower the bound fraction of the tritiated known GPIIb/IIIa binder (^3H) was. The fraction of tritiated compound (^3H), which is not displaced by inhibitor, was measured in a microplate scintillation counter.
Purified human glycoprotein IIb/IIIa (20 mM Tris-HCl, 0.1 M NaCl, 0.1% Triton X-100, 1 mM CaCl2, 0.05% NaN3, 50% Glycerol, pH 7.4) was purchased from Enzyme Research Laboratories Inc. (South Bend, Ind.). The GPIIb/IIIa receptor was diluted in phosphate-buffered saline (Dulbecco's Phosphate Buffered Saline (D-PBS(+)) with calcium and magnesium, GIBCO®, Invitrogen) with 0.01% bovine serum albumin (albumin from bovine serum—lyophilized powder, ≧96%, Sigma).
The GPIIb/IIIa receptor was immobilized 48 hours at least (100 μL per well, 48 to maximum 96 hours) on a 96-well solid plate (Immuno Plate MaxiSorp™, Nunc, Roskilde, Denmark) at 277 K to 280 K and at a concentration of 0.1 μg per well to 1 μg per well. As negative control one row of the plate (n=8) was incubated just with 2% bovine serum albumin (200 μper well, albumin from bovine serum—lyophilized powder, […], Sigma, diluted in D-PBS(+)). After washing three times with the wash buffer (230 μL per well, Dulbecco's Phosphate Buffered Saline (D-PBS (−)) contains no calcium or magnesium, GIBCO®, Invitrogen) residual exposed plastic and unspecific binding sites were blocked by incubating the plate with a special blocking solution (200 μL per well, Roti®-Block, Carl Roth GmbH Co KG, Karlsruhe) containing 2% bovine serum albumin (Albumin from bovine serum—lyophilized powder, ≧96%, Sigma) 1 hour at room temperature.
After washing three times with the wash buffer 50 μL of tritiated reference compound (60 nM, ^3H-labeled compound) and 50 μL of novel compound (inhibitor, ^19F) were simultaneously added to each well and incubated for 1 hour at room temperature. Several concentrations of each novel inhibitor (0.1, 1, 2, 5, 10, 20 50, 100, 200, 500, 1000, 2000, 5000, 10000 and 20000 nM) were investigated. At each concentration of inhibitor a fourfold determination was performed.
The maximum value of tritiated reference compound was determined without addition of inhibitor (n=8). To exclude unspecific binding of ^3H-reference compound wells without glycoprotein receptors were used as negative controls (n=12, identically treated just without GP IIb/IIIa receptors).
After one hour the plate was washed three times with phosphate-buffered saline (200 μL per well, Dulbecco's Phosphate Buffered Saline (D-PBS(+)), GIBCO®, Invitrogen). Following 140 μL of liquid scintillation cocktail (MicroScint™ 40 aqueous, Perkin Elmer) was added to each well. After 15 min at room temperature the plates were measured at the microplate scintillation counter (TopCount NXT v2.13, Perkin Elmer, Packard Instrument Company).
In the first step human glycoprotein IIb/IIIa, which is purified from human platelets, was immobilized on a 96-well solid plate. After 48 hours at least the plates were washed and the unspecific binding sites were blocked with Roti®-Block. In the next step, the plates were simultaneously incubated with a tritium labeled reference compound and the novel small molecule compound (inhibitor). The higher the affinity of the inhibitor, the smaller is the bound fraction of reference compound. The fraction of tritiated reference compound, which is not displaced by inhibitor, was measured at a microplate scintillation counter.

[4] = tested on: monkey microsomes; test: In vitro metabolic stability in liver microsomes, monkey; format: in vitro ADME; conditions: Cynomolgus, female, calculated
Description: as §1

[5] = Plasma protein binding by equilibrium dialysis, human plasma; format: in vitro ADME; conditions: plasma (10% in buffer), Caucasian, read-out: Fu (Mari)
Description: as §2

[6] = tested on: Human liver microsomes; test: In vitro metabolic stability in liver microsomes, human; format: in vitro ADME; conditions: both, 0.3 μM, pH 7.4
Description: as §1

[7] = tested on: mouse microsomes; test: In vitro metabolic stability in liver microsomes, mouse; format: in vitro ADME; conditions: NMRI, female, calculated
Description: as §1

[8] = In vitro metabolic stability in liver microsomes, human; format: in vitro ADME; conditions: pH 7.4
Description: as §1

[9] = 19F compounds vs 60 nM 3H-labeled reference compound, 1 hour at room temperature, read-out: IC50 human
[10] = values repeated beside the 18F-compound, read-out: IC50 human (corresponding 19F-compound, Table 2)

CLblood [1] [mL/day/kg]	fraction unbound at 0.3 μM [2]	fraction unbound at 3 μM [2]	IC50 [3, 9] [µM]	IC50 [3, 10] [µM]	CLblood [4] [mL/day/kg]	fraction unbound at 0.3 μM [5]	fraction unbound at 3 μM [5]	CLblood [6] [mL/day/kg]	CLblood [7] [mL/day/kg]	recovery at 60 min, 0.3 μM [8] [%]	SMILES
2.4	0.99	0.93	0.101	0.101	2.4	0.91	0.9	2.4			O=C(O)C[C@H](NC(=O)[C@@H]1CCCN(C(=O)CCC2CCNCC2)C1)c1cccc(OCCF)c1 [Example 1, (3S)-3-[3-(2-Fluoroethoxy)phenyl]-3-[({(3R)-1-[3-(piperidin-4-yl)propanoyl]piperidin-3-yl}carbonyl)amino]propanoic acid]
2.4	1	1	0.02	0.02	2.4	0.96	1	2.4	2.4	~100	O=C(O)C[C@H](NC(=O)[C@@H]1CCCN(C(=O)CCC2CCNCC2)C1)c1cncc(OCCF)c1 [Example 3, (3S)-3-[5-(2-Fluoroethoxy)pyridin-3-yl]-3-[({(3R)-1-[3-(piperidin-4-yl)propanoyl]-piperidin-3-yl}carbonyl)amino]propanoic acid]
